# Results taken from patent US4866038A, “Method of stimulating integumental melanocytes by topical application of analogs of alpha-msh” (University Patents, Inc., priority 1988, dated 1989).
# Like-named read-outs stand apart in the source and are kept apart here. Non-standard residues stand in square brackets, D forms with d. Residues, ends and D or L forms follow the SMILES beside them. *: point of attachment. Phe(4-NO2) = N[C@@H](Cc1ccc([N+](=O)[O-])cc1)C(=O)O; dPhe(4-NO2) = N[C@H](Cc1ccc([N+](=O)[O-])cc1)C(=O)O; dPhg = N[C@@H](C(=O)O)c1ccccc1; Phg = N[C@H](C(=O)O)c1ccccc1; Nle = CCCC[C@H](N)C(=O)O; For = O=C*
# Assays:
# [1] = test system: frog (Rana pipiens); type: cell-based
# Experimental: (§1) Biological effect on in vivo and in vitro melanosome dispersion was examined using the frog (Rana pipiens) and the lizard (Anolis caroliniensis). [See Hadley et al., Science 213:1025-1027(1981)]; similar examinations were conducted with respect to the duration of its ability to stimulate melanosome dispersion in vitro using the skin bioassay as described in Shimume, Endrochrinology, 54:553-560(1954). The in vitro results are depicted in Table I.
# [2] = test system: lizard (Anolis caroliniensis); type: cell-based
# Experimental: as §1
Compound,Relative Potency Frog [1],Relative Potency Lizard [2],"Relative Potency Frog ([1]; in vitro skin bioassay, alpha-MSH = 1.0)"
CSCC[C@H](NC(C)=O)C(=O)N[C@@H](CCC(=O)O)C(=O)N[C@@H](Cc1c[nH]cn1)C(=O)N[C@@H](Cc1ccc([N+](=O)[O-])cc1)C(=O)N[C@@H](CCCNC(=N)N)C(=O)N[C@@H](Cc1c[nH]c2ccccc12)C(=O)NCC(=O)N[C@@H](CCCCN)C(N)=O [Ac--[Phe(pNO2)^7]--alpha-MSH4-11 --NH2] (Ac-MEH[Phe(4-NO2)]RWGK-NH2),0.0003,–,–
CCCC[C@H](NC(C)=O)C(=O)N[C@@H](CCC(=O)O)C(=O)N[C@@H](Cc1c[nH]cn1)C(=O)N[C@@H](Cc1ccc([N+](=O)[O-])cc1)C(=O)N[C@@H](CCCNC(=N)N)C(=O)N[C@@H](Cc1c[nH]c2ccccc12)C(=O)NCC(=O)N[C@@H](CCCCN)C(N)=O [Ac--[Nle^ 4 --pNO2 Phe^7]--alpha-MSH4-11 --NH2] (Ac-[Nle]EH[Phe(4-NO2)]RWGK-NH2),0.0009,0.20,–
CCCC[C@H](NC(C)=O)C(=O)N[C@@H](CCC(=O)O)C(=O)N[C@@H](Cc1c[nH]cn1)C(=O)N[C@H](Cc1ccccc1)C(=O)N[C@@H](CCCNC(=N)N)C(=O)N[C@H](Cc1c[nH]c2ccccc12)C(N)=O [Ac--[Nle^4 --D-Phe^7 --D-Trp^9]--alpha-MSH4-9 --NH2] (Ac-[Nle]EH[dF]R[dW]-NH2),0.03,3.8,–
CCCC[C@H](NC(C)=O)C(=O)N[C@@H](CCC(=O)O)C(=O)N[C@@H](Cc1c[nH]cn1)C(=O)N[C@H](Cc1ccccc1)C(=O)N[C@@H](CCCNC(=N)N)C(=O)N[C@@H](Cc1c[nH]c2ccccc12)C(N)=O [Ac--[Nle^4 --D-Phe^7 --alpha-MSH4-9 --NH2] (Ac-[Nle]EH[dF]RW-NH2),–,7.14,–
CCCC[C@H](NC(C)=O)C(=O)N[C@@H](CCC(=O)O)C(=O)N[C@@H](Cc1c[nH]cn1)C(=O)N[C@H](Cc1ccccc1)C(=O)N[C@@H](CCCNC(=N)N)C(=O)N[C@@H](Cc1ccccc1)C(=O)NCC(=O)N[C@@H](CCCCN)C(N)=O [Ac--[Nle^4 --D-Phe^7 --Phe^9]--alpha-MSH4-11 --NH2] (Ac-[Nle]EH[dF]RFGK-NH2),0.017,–,–
CCCC[C@H](NC(C)=O)C(=O)N[C@@H](CCC(=O)O)C(=O)N[C@@H](Cc1c[nH]cn1)C(=O)N[C@H](Cc1ccc(O)cc1)C(=O)N[C@@H](CCCNC(=N)N)C(=O)N[C@@H](Cc1c[nH]c2ccccc12)C(=O)NCC(=O)N[C@@H](CCCCN)C(N)=O [Ac--[Nle^4 --D-Tyr^7]--alpha-MSH4-11 --NH2] (Ac-[Nle]EH[dY]RWGK-NH2),–,1.0,–
CCCC[C@H](NC(C)=O)C(=O)N[C@@H](CCC(=O)O)C(=O)N[C@@H](Cc1c[nH]cn1)C(=O)N[C@H](Cc1ccccc1)C(=O)N[C@H](CCCNC(=N)N)C(=O)N[C@@H](Cc1c[nH]c2ccccc12)C(=O)NCC(=O)N[C@@H](CCCCN)C(N)=O [Ac--[Nle^4 --D-Phe^7 --D-Arg^8]--alpha-MSH4-11 --NH2] (Ac-[Nle]EH[dF][dR]WGK-NH2),0.00010,0.0022,–
CCCC[C@H](NC(C)=O)C(=O)N[C@@H](CCC(=O)O)C(=O)N[C@@H](Cc1c[nH]cn1)C(=O)N[C@H](Cc1ccccc1)C(=O)N[C@@H](CCCNC(=N)N)C(=O)N[C@@H](Cc1cn(C=O)c2ccccc12)C(=O)NCC(=O)N[C@@H](CCCCN)C(N)=O [Ac--[Nle^4 --D-Phe^7 --TrpFor^9]--alpha-MSH4-11 --NH2] (Ac-[Nle]EH[dF]RW(For)GK-NH2),0.033,–,–
CCCC[C@H](NC(C)=O)C(=O)N[C@@H](CCC(=O)O)C(=O)N[C@H](Cc1c[nH]cn1)C(=O)N[C@H](Cc1ccccc1)C(=O)N[C@@H](CCCNC(=N)N)C(=O)N[C@@H](Cc1c[nH]c2ccccc12)C(=O)NCC(=O)N[C@@H](CCCCN)C(N)=O [Ac--[Nle^4 --D-His^6 --D-Phe^7]--alpha-MSH4-11 --NH2] (Ac-[Nle]E[dH][dF]RWGK-NH2),0.0006,0.053,–
CSCC[C@H](NC(C)=O)C(=O)N[C@@H](CCC(=O)O)C(=O)N[C@@H](Cc1c[nH]cn1)C(=O)N[C@H](C)C(=O)N[C@@H](CCCNC(=N)N)C(=O)N[C@@H](Cc1c[nH]c2ccccc12)C(=O)NCC(=O)N[C@@H](CCCCN)C(N)=O [Ac--[D-Ala^7]--alpha-MSH4-11 --NH2] (Ac-MEH[dA]RWGK-NH2),0.001,–,–
CC(=O)N[C@@H](Cc1ccc(O)cc1)C(=O)N[C@@H](CCC(=O)O)C(=O)N[C@@H](Cc1c[nH]cn1)C(=O)N[C@H](Cc1ccccc1)C(=O)N[C@@H](CCCNC(=N)N)C(=O)N[C@@H](Cc1c[nH]c2ccccc12)C(=O)NCC(N)=O [Ac--[Tyr^4 --D-Phe^7 --alpha-MSH4-10 --NH2] (Ac-YEH[dF]RWG-NH2),0.005,–,–
CC(=O)N[C@@H](Cc1ccc(O)cc1)C(=O)N[C@@H](CCC(=O)O)C(=O)N[C@@H](Cc1c[nH]cn1)C(=O)N[C@H](Cc1ccccc1)C(=O)N[C@@H](CCCNC(=N)N)C(=O)N[C@@H](Cc1c[nH]c2ccccc12)C(=O)NCC(=O)N[C@@H](CCCCN)C(N)=O [Ac--[Tyr^4 --D-Phe^7]--alpha-MSH4-11 --NH2] (Ac-YEH[dF]RWGK-NH2),0.01,–,–
CCCC[C@H](NC(C)=O)C(=O)N[C@@H](CCC(=O)O)C(=O)N[C@@H](Cc1c[nH]cn1)C(=O)N[C@@H](Cc1ccccc1)C(=O)N[C@@H](CCCNC(=N)N)C(=O)N[C@@H](Cc1c[nH]c2ccccc12)C(N)=O [Ac--[Nle^4 --alpha-MSH4-9 --NH2] (Ac-[Nle]EHFRW-NH2),0.0007,0.18,–
CC(=O)N[C@@H](CCC(=O)O)C(=O)N[C@@H](Cc1c[nH]cn1)C(=O)N[C@H](Cc1ccccc1)C(=O)N[C@@H](CCCNC(=N)N)C(=O)N[C@@H](Cc1c[nH]c2ccccc12)C(=O)NCC(=O)N[C@@H](CCCCN)C(N)=O [Ac--[D-Phe^7]--alpha-MSH5-11 --NH2] (Ac-EH[dF]RWGK-NH2),0.01,–,–
CCCC[C@H](NC(C)=O)C(=O)N[C@@H](CCC(=O)O)C(=O)N[C@@H](Cc1c[nH]cn1)C(=O)NCC(=O)N[C@@H](CCCNC(=N)N)C(=O)N[C@@H](Cc1c[nH]c2ccccc12)C(=O)NCC(=O)N[C@@H](CCCCN)C(N)=O [Ac--[Nle^4 --Gly^7]--alpha-MSH4-11 --NH2] (Ac-[Nle]EHGRWGK-NH2),0.005,0.0005,–
CCCC[C@H](NC(C)=O)C(=O)N[C@@H](CCC(=O)O)C(=O)N[C@@H](Cc1c[nH]cn1)C(=O)N[C@H](Cc1ccccc1)C(=O)N[C@@H](CCCNC(=N)N)C(=O)N[C@H](Cc1c[nH]c2ccccc12)C(=O)NCC(=O)N[C@@H](CCCCN)C(N)=O [Ac--[Nle^4 --D-Phe^7 --D-Trp^9]--alpha-MSH4-11 --NH2] (Ac-[Nle]EH[dF]R[dW]GK-NH2),3.17,10.5,–
CCCC[C@H](NC(C)=O)C(=O)N[C@@H](CCC(=O)O)C(=O)N[C@@H](Cc1c[nH]cn1)C(=O)N[C@H](C)C(=O)N[C@@H](CCCNC(=N)N)C(=O)N[C@@H](Cc1c[nH]c2ccccc12)C(=O)NCC(=O)N[C@@H](CCCCN)C(N)=O [Ac--[Nle^4 --D-Ala^7]--alpha-MSH4-11 --NH2] (Ac-[Nle]EH[dA]RWGK-NH2),0.000080,0.020,–
CCCC[C@H](NC(C)=O)C(=O)N[C@@H](CCC(=O)O)C(=O)N[C@@H](Cc1c[nH]cn1)C(=O)N[C@H](Cc1ccc([N+](=O)[O-])cc1)C(=O)N[C@@H](CCCNC(=N)N)C(=O)N[C@@H](Cc1c[nH]c2ccccc12)C(=O)NCC(=O)N[C@@H](CCCCN)C(N)=O [Ac--[Nle^4 --D-pNO2 Phe^7]-- alpha-MSH4-11 --NH2] (Ac-[Nle]EH[dPhe(4-NO2)]RWGK-NH2),0.10,4.0,–
CCCC[C@H](NC(C)=O)C(=O)N[C@@H](CCC(=O)O)C(=O)N[C@H](Cc1c[nH]cn1)C(=O)N[C@@H](Cc1ccccc1)C(=O)N[C@@H](CCCNC(=N)N)C(=O)N[C@@H](Cc1c[nH]c2ccccc12)C(=O)NCC(=O)N[C@@H](CCCCN)C(N)=O [Ac--[Nle^4 --D-His^6]--alpha-MSH4-11 --NH2] (Ac-[Nle]E[dH]FRWGK-NH2),0.0014,0.002,–
CCCC[C@H](NC(C)=O)C(=O)N[C@@H](CCC(=O)O)C(=O)N[C@@H](Cc1c[nH]cn1)C(=O)N[C@@H](C)C(=O)N[C@@H](CCCNC(=N)N)C(=O)N[C@@H](Cc1c[nH]c2ccccc12)C(=O)NCC(=O)N[C@@H](CCCCN)C(N)=O [Ac--[Nle^4 --Ala^7]--alpha-MSH4-11 --NH2] (Ac-[Nle]EHARWGK-NH2),0.02,0.009,–
CCCC[C@H](NC(C)=O)C(=O)N[C@@H](CCC(=O)O)C(=O)N[C@@H](Cc1c[nH]cn1)C(=O)N[C@H](C(=O)N[C@@H](CCCNC(=N)N)C(=O)N[C@@H](Cc1c[nH]c2ccccc12)C(=O)NCC(=O)N[C@@H](CCCCN)C(N)=O)c1ccccc1 [Ac--[Nle^4 --Plg^7]--alpha-MSH4-11 --NH2] (Ac-[Nle]EH[Phg]RWGK-NH2),0.14,0.14,–
CCCC[C@H](NC(C)=O)C(=O)N[C@@H](CCC(=O)O)C(=O)N[C@@H](Cc1c[nH]cn1)C(=O)N[C@@H](C(=O)N[C@@H](CCCNC(=N)N)C(=O)N[C@@H](Cc1c[nH]c2ccccc12)C(=O)NCC(=O)N[C@@H](CCCCN)C(N)=O)c1ccccc1 [Ac--[Nle^4 --D-Plg^7]--alpha-MSH4-11 --NH2] (Ac-[Nle]EH[dPhg]RWGK-NH2),0.0003,0.0005,–
Ac--[Phe--Gly^7 ]--alpha-MSH4-11 --NH2,–,–,0.10
CCCC[C@H](NC(C)=O)C(=O)N[C@@H](CCC(=O)O)C(=O)N[C@@H](Cc1c[nH]cn1)C(=O)N[C@@H](Cc1ccc(O)cc1)C(=O)N[C@@H](CCCNC(=N)N)C(=O)N[C@@H](Cc1c[nH]c2ccccc12)C(=O)NCC(=O)N[C@@H](CCCCN)C(N)=O [Ac--[Nle^4 --Tyr^7]--alpha-MSH4-11 --NH2] (Ac-[Nle]EHYRWGK-NH2),–,0.0090,–
